{"source": "paper PMC6192554", "about": "“In vitro toxicity and efficacy of verdinexor, an exportin 1 inhibitor, on opportunistic viruses affecting immunocompromised individuals” (PLoS ONE, 2018)", "key": {"diverse panel of viruses": {"system": "diverse panel of viruses", "experiment": "Broad antiviral screening, summary over all viruses", "assay_type": "cell-based", "details": "across the panel of viruses; read-out: median EC50", "method": "Each assay was performed in triplicate in 2 independent assays. In some cases different assays were used for the secondary screen, as alternate experimental procedures are able to measure differential effects on the viral life cycle (ie. qPCR for genome replication, plaque reduction for replication, assembly and release, etc.)."}, "[1]": {"experiment": "Cytotoxicity in HEK293 cells (cell counter viability)", "assay_type": "cell-based", "details": "human, HPV-11 primary screen", "procedure": "(§1) Cytotoxicity assays: Concurrent assessment of cytotoxicity was also performed for each study in the same cell line and with the same compound exposure.\nHPV cytotoxicity assay was performed at the time of viral harvest by scoring cells in a BioRad Automatic Cell Counter for cell viability."}, "[2]": {"system": "104 principal receptor/ligand interactions", "experiment": "Off-target panel of in vitro protein binding assays", "details": "10 μM; 104 receptor/ligand interactions", "procedure": "(§2) Serum concentrations with Verdinexor have been previously established in in vivo models of influenza in both mice and ferrets. In mice receiving 10mg/kg and ferrets receiving 5mg/kg, max plasma concentration of verdinexor was approximately 1200 (ng/mL) however, the half life in mice was extended (6 hours) as compared to that of ferrets (2 hours). Serum protein binding of verdinexor in humans is 98.4%. […] A Phase 1, Randomized, Double-Blind, Placebo-Controlled, Sequential, Dose-Escalating Trial to Evaluate the Safety and Tolerability of Oral Verdinexor (KPT-335) in Healthy Adult Subjects was conducted in Nucleus Network, Melbourne, Victoria, Australia [ClinicalTrials.gov: NCT02431364]. No study results are currently posted for this study. Furthermore, a clinical study was submitted to the USA FDA on IND#122718. This phase 1a, Randomized, Double-Blind, Placebo-Controlled, Sequential, Dose-Escalating Trial of Single and Multi-Dose oral verdinexor (KPT-335) to Evaluate the Safety and Tolerability in Healthy Elderly Volunteers is yet to be initiated and recruit subjects."}, "histamine H1 receptor": {"target": "histamine H1 receptor (Homo sapiens, UniProt P35367)", "sequence (P35367 whole entry, species assumed)": "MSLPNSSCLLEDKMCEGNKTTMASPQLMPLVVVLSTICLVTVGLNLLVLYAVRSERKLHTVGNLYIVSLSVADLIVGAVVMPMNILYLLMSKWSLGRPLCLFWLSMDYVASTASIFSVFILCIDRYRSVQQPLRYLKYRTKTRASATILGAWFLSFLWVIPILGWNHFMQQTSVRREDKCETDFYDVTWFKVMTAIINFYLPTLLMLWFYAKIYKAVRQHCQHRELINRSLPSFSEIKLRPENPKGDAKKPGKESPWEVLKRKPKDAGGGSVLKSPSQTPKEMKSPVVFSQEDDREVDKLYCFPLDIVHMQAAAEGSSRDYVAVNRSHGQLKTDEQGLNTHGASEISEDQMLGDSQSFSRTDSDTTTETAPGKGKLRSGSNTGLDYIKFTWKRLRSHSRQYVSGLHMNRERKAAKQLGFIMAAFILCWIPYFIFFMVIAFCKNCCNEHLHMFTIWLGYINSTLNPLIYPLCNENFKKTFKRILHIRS", "experiment": "Histamine H1 receptor binding (off-target panel)", "details": "Study No. KS-1016 and PE-50946871"}, "[3]": {"experiment": "Cytotoxicity in HeLa cells (MTS)", "assay_type": "cell-based", "details": "human", "procedure": "Cytotoxicity assays: Concurrent assessment of cytotoxicity was also performed for each study in the same cell line and with the same compound exposure. For AdV cytotoxicity assay, at 6d post-infection plates were stained with tetrazolium-based MTS (CellTiter96 Reagent, Promega) and the microtiter plates were read spectrophotometrically at 490/650nm (Molecular Devices)."}, "[4]": {"system": "JC polyoma virus MAD-4 strain", "experiment": "microbe, parasite or virus in culture", "assay_type": "cell-based", "details": "Polyomavirus sp., COS-7, JCPyV, COS-7 cells", "procedure": "John Cunningham polyomavirus (JCPyV) strains MAD-1 and MAD-4 and BK polyomavirus (BKPyV) Gardner strain were obtained from ATCC. COS-7 cells were obtained from ATCC and maintained according to ATCC-supplied protocols.\n(§3) Cytotoxicity assay was performed in a manner analogous to KSHV above. Evaluation of compounds against JCPyV virus was done in COS7 cells with the plasmid pMP508 to provide a standard curve for quantification.\nViral DNA was quantified (S1 Table) together with the plasmid pMP508 to provide a standard curve for absolute quantification. Secondary assays against JCV were also performed in COS7 cells by methods similar to those for BK virus to identify if verdinexor inhibited adsorption or entry of the virus."}, "[5]": {"details": "mouse, in vivo, 10 mg/kg; cited from earlier work"}, "[6]": {"system": "Guinea pig CMV strain 22122", "experiment": "GPCMV plaque reduction assay in GPL cells", "assay_type": "cell-based, guinea pig cytomegalovirus", "details": "in Cavia porcellus, primary screen", "procedure": "(§4) Murine CMV strain Smith was obtained from Earl Kern and assayed in mouse embryonic fibroblast cells (MEF) immortalized by telomerization. Guinea pig CMV strain 22122 was obtained from the ATCC and assayed in primary guinea pig lung cells (GPL). Both MEF and GPL cells were prepared at the UAB tissue procurement facility with IRB approval as previously described.\n(§5) Plaque reduction assays for MCMV, GPCMV were performed on monolayers of GPL (GPCMV) or MEF (MCMV) cells prepared in six-well plates and incubated at 37°C for 2d to allow the cells to reach confluency. Media was then aspirated from the wells and 0.2ml of virus was added to each of three wells to yield 20–30 plaques in each well. The virus was allowed to adsorb to the cells for 1h and the plates were agitated every 15min. Compounds were diluted in assay media consisting of MEM with Earl’s salts supplemented with 2% FBS, L-glutamine, penicillin, and gentamycin. Solutions ranging from 0.0032–10μM (primary) or 0.032–100μM (secondary) were added to triplicate wells and the plates were incubated for various times, depending on the virus used. For MCMV and GPCMV, the cell monolayer was stained with 1% neutral red solution for 4h at which time the stain was aspirated and cells were washed with PBS. […]"}, "HPV-18": {"system": "HPV-18", "experiment": "HPV-18 DNA amplification in organotypic raft culture of PHKs (qPCR)", "assay_type": "cell-based, human papillomavirus", "procedure": "HPV-11 and -18 were tested in HEK293 cells and primary human keratinocytes (PHK), respectively. PHKs were isolated from neonatal foreskins following circumcision according to IRB-approved protocols at UAB. They were grown in keratinocyte serum-free medium (Life Technologies) with mitomycin C-treated J2 feeder cells (Swiss 3T3 J2 fibroblasts; Elaine Fuchs, Rockefeller University). HEK 293 cells were maintained under standard conditions.\nFor secondary assays, the amplification of HPV-18 DNA was determined in an organotypic squamous epithelial raft culture of PHKs. Whole genomic HPV-18 plasmids were generated in plasmid-transfected PHKs and developed into organotypic cultures as described. Based on the results of a 3-day toxicity assay, concentrations of test compound were added to a subset of raft cultures from day 6 through day 13 when the cultures were harvested. Similarly treated normal PHK raft cultures were also prepared to assess toxicity of uninfected tissue. One set of cultures were fixed in 10% buffered formalin, paraffin embedded and sectioned for in situ assay. Sections were stained with hematoxylin and eosin. Total DNA harvest from unfixed raft cultures was used to determine the HPV-18 copy number/per cell by qPCR. Inhibition was expressed as % of viral DNA copies relative to the untreated cultures."}, "Serum protein binding": {"experiment": "Serum protein binding", "assay_type": "in vitro ADME", "details": "human, humans", "procedure": "as §2"}, "[7]": {"experiment": "Cytotoxicity in COS7 cells, concurrent with JCPyV assays", "assay_type": "cell-based", "details": "African green monkey, COS-7 cells", "procedure": "as §1\nFor KSHV, cell viability was assessed with the CellTiter-Glo Luminescent Cell Viability Assay (Promega) using manufacturer’s protocol. Luminescence was quantified on a luminometer. Standard methods were used to calculate the 50% cytotoxic level (CC50).\nas §3"}, "Murine CMV strain Smith": {"system": "Murine CMV strain Smith", "experiment": "MCMV plaque reduction assay in MEF cells", "assay_type": "cell-based, murine cytomegalovirus", "details": "primary screen", "procedure": "as §4, §5"}, "HIV": {"system": "HIV", "parameters": "method as in PMID 3025240", "details": "PBMCs from healthy donors; read-out: EC50, anti-HIV activity; cited from earlier work"}}, "data": [{"smiles": "O=C(C=Cn1cnc(-c2cc(C(F)(F)F)cc(C(F)(F)F)c2)n1)NNc1ccccn1", "note": "(stereo in doubt) [verdinexor, (E)-3-[3-[3,5-bis(trifluoromethyl)phenyl]-1,2,4-triazol-1-yl]-N'-pyridin-2-ylprop-2-enehydrazide]", "values": [{"measurement": "EC50", "setting": "diverse panel of viruses", "value": 2000, "unit": "nM"}, {"measurement": "CC50", "setting": "[1]", "value": 89600, "unit": "nM"}, {"measurement": "effect on off-target panel", "setting": "[2]", "value": "none of the enzymes, receptors, transporters, kinases, or cysteine proteases were significantly affected"}, {"measurement": "inhibition at 10 µM", "setting": "histamine H1 receptor", "value": 33, "unit": "%"}, {"measurement": "CC50 at 6 d", "setting": "[3]; Ad5 primary screen", "value": 180, "unit": "nM"}, {"measurement": "CC50 at 6 d", "setting": "[3]; Ad5 secondary screen", "value": 100, "unit": "nM"}, {"measurement": "EC50", "setting": "[4]; primary screen", "value": 7450, "unit": "nM"}, {"measurement": "EC50", "setting": "[4]; secondary screen", "value": 3140, "unit": "nM"}, {"measurement": "half life", "setting": "[5]", "value": 6, "unit": "h"}, {"measurement": "EC50", "setting": "[6]", "value": 190, "unit": "nM"}, {"measurement": "EC50", "setting": "HPV-18; Human papillomavirus", "value": 8300, "unit": "nM"}, {"measurement": "efficacy against HPV-18", "setting": "HPV-18; secondary screen, PHKs", "value": "did not show efficacy"}, {"measurement": "fraction unbound", "setting": "Serum protein binding", "value": 0.016}, {"measurement": "CC50", "setting": "[7]; JCPyV primary screen", "value": 10000, "unit": "nM"}, {"measurement": "CC50", "setting": "[7]; JCPyV secondary screen", "value": 73300, "unit": "nM"}, {"measurement": "EC50", "setting": "Murine CMV strain Smith", "value": 190, "unit": "nM"}, {"measurement": "EC50", "setting": "HIV", "value": "116 ± 54", "unit": "nM"}]}]}
